Test results from patent publication US20260285855A1, “HETEROARYL DERIVATIVES AS DDRS INHIBITORS” (CHIESI FARMACEUTICI S.P.A., priority 2023, published 2026).

Columns and labels:
[1] = target: T1, DDR1 (Homo sapiens, UniProt Q08345); assay: LanthaScreen Europium Kinase Binding assay, DDR1; settings: 5 nM DDR1, 20 nM Kinase Tracer 178, 1 h at rt; Ki from IC50 by Cheng-Prusoff; read-out: Ki DDR1
T1 construct: purchased Carna Biosciences
Experimental: (§1) DDR1 and DDR2 binding assays were performed using Life Technologies LanthaScreen™ Europium Kinase Binding assay. […] IC50 values were determined in GraphPad Prism 7.0 software, using 4 parameter model: log (inhibitor) vs. response. IC50 values were converted in Ki using the Cheng-Prusoff equation (Ki-IC50/(1+ [Tracer]/Kd).

[2] = target: T2, DDR2 (Homo sapiens, UniProt Q16832); assay: LanthaScreen Europium Kinase Binding assay, DDR2; settings: 5 nM DDR2, 10 nM Kinase Tracer 178, 1 h at rt; Ki from IC50 by Cheng-Prusoff; read-out: Ki DDR2
T2 construct: purchased Life Technologies
T2 sequence (Q16832 22-855): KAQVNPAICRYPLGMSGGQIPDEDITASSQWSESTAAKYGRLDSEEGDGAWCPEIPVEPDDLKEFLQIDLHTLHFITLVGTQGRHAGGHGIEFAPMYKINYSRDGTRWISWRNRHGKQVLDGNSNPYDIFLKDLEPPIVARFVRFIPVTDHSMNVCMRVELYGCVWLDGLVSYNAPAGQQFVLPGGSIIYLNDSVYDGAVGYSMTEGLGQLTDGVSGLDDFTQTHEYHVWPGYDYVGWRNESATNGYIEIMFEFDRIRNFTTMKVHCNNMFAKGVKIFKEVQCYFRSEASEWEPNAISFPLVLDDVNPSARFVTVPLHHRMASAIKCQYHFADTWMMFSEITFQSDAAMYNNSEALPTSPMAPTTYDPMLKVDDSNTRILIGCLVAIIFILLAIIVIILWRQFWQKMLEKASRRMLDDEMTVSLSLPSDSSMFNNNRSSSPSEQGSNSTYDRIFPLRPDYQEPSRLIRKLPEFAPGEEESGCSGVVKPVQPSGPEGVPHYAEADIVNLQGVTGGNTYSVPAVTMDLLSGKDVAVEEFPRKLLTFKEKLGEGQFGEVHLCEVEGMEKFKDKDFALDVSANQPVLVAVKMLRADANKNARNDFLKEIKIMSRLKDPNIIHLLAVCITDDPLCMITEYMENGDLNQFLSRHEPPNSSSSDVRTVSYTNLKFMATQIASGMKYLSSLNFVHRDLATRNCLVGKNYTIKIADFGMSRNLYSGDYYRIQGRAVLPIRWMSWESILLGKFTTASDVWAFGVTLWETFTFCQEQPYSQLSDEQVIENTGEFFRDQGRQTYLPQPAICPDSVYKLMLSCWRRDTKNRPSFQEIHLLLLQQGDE
Experimental: as §1

T1 sequence (Q08345 19-913): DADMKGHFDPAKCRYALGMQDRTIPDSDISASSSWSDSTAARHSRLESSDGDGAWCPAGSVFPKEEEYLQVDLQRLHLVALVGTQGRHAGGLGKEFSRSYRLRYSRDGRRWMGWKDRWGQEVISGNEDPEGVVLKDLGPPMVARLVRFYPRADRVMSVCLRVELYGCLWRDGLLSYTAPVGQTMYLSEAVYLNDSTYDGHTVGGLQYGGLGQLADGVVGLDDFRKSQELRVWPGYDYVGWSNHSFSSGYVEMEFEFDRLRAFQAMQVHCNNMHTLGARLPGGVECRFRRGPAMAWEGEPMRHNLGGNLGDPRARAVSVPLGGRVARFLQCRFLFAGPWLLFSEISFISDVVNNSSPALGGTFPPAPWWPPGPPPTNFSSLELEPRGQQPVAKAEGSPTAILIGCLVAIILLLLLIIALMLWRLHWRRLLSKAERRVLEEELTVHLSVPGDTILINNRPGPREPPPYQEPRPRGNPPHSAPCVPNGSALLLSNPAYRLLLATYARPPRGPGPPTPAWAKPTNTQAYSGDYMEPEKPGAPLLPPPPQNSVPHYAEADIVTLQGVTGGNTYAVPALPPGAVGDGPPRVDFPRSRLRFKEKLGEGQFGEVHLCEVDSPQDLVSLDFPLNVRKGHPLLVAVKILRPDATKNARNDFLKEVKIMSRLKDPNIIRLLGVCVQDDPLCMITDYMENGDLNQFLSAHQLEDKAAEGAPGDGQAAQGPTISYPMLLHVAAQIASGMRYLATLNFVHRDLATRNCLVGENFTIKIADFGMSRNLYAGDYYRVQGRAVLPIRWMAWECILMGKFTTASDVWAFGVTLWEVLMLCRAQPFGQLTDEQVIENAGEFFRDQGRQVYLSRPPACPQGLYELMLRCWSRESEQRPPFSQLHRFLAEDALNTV

Compound	Ki [1] [nM]	Ki [2] [nM]
CN(C(=O)Nc1cc(OC(F)(F)F)ccn1)C1CC2(C1)CN(C(=O)c1cnn3ccn(C)c13)C2 [Example 105, 1-methyl-1-(2-(1-methyl-1H-imidazo[1,2-b]pyrazole-7-carbonyl)-2-azaspiro[3.3]heptan-6-yl)-3-(4-(trifluoromethoxy)pyridin-2-yl)urea]	< 5	5 to 25
Cn1ccn2ncc(C(=O)N3CC4(CC(NC(=O)Nc5cc(F)cc(C(F)(F)F)c5)C4)C3)c12 [Example 106, 1-(3-fluoro-5-(trifluoromethyl)phenyl)-3-(2-(1-methyl-1H-imidazo[1,2-b]pyrazole-7-carbonyl)-2-azaspiro[3.3]heptan-6-yl)urea]	< 5	< 5
COc1ncc(C(F)(F)F)cc1NC(=O)NC1CC2(C1)CN(C(=O)c1cnn3ccn(C)c13)C2 [Example 107, 1-(2-methoxy-5-(trifluoromethyl)pyridin-3-yl)-3-(2-(1-methyl-1H-imidazo[1,2-b]pyrazole-7-carbonyl)-2-azaspiro[3.3]heptan-6-yl)urea]	< 5	5 to 25
Cn1ccn2ncc(C(=O)N3CC4(CC(NC(=O)Nc5ccc(Cl)c(C(F)(F)F)c5)C4)C3)c12 [Example 108, 1-(4-chloro-3-(trifluoromethyl)phenyl)-3-(2-(1-methyl-1H-imidazo[1,2-b]pyrazole-7-carbonyl)-2-azaspiro[3.3]heptan-6-yl)urea]	< 5	5 to 25
COc1ccc(S(F)(F)(F)(F)F)cc1NC(=O)NC1CC2(C1)CN(C(=O)c1cnn3ccn(C)c13)C2 [Example 109, 1-(2-methoxy-5-(pentafluoro-16-sulfaneyl)phenyl)-3-(2-(1-methyl-1H-imidazo[1,2-b]pyrazole-7-carbonyl)-2-azaspiro[3.3]heptan-6-yl)urea]	< 5	< 5
O=C(Nc1cc(CO)cc(C(F)(F)F)c1)NC1CC2(C1)CN(C(=O)c1ncnc3ccsc13)C2 [Example 110, 1-(3-(hydroxymethyl)-5-(trifluoromethyl)phenyl)-3-(2-(thieno[3,2-d]pyrimidine-4-carbonyl)-2-azaspiro[3.3]heptan-6-yl)urea]	< 5	< 5
CN(C(=O)Nc1cc(C#N)cc(OC(F)(F)F)c1)C1CC2(C1)CN(C(=O)c1cnn3ccn(C)c13)C2 [Example 111, 3-(3-cyano-5-(trifluoromethoxy)phenyl)-1-methyl-1-(2-(1-methyl-1H-imidazo[1,2-b]pyrazole-7-carbonyl)-2-azaspiro[3.3]heptan-6-yl)urea]	< 5	< 5
CN(C)Cc1ccc(NC(=O)NC2CC3(C2)CN(C(=O)c2ncnc4ccsc24)C3)cc1C(F)(F)F [Example 112, 1-(4-((dimethylamino)methyl)-3-(trifluoromethyl)phenyl)-3-(2-(thieno[3,2-d]pyrimidine-4-carbonyl)-2-azaspiro[3.3]heptan-6-yl)urea]	< 5	5 to 25
O=C(Nc1cccc(C(F)(F)F)c1)NC1CC2(C1)CN(C(=O)c1cnn3cc(CO)ccc13)C2 [Example 113, 1-(2-(6-(hydroxymethyl)pyrazolo[1,5-a]pyridine-3-carbonyl)-2-azaspiro[3.3]heptan-6-yl)-3-(3-(trifluoromethyl)phenyl)urea]	< 5	< 5
CN(C(=O)Nc1cc(OC(F)(F)F)ccn1)C1CC2(C1)CN(C(=O)c1cnn3ccsc13)C2 [Example 114, 1-methyl-1-(2-(pyrazolo[5,1-b]thiazole-7-carbonyl)-2-azaspiro[3.3]heptan-6-yl)-3-(4-(trifluoromethoxy)pyridin-2-yl)urea]	< 5	5 to 25
O=C(Nc1cccc(C(F)(F)F)c1)NC1CC2(C1)CN(C(=O)c1ccnc3[nH]ccc13)C2 [Example 115, 1-(2-(1H-pyrrolo[2,3-b]pyridine-4-carbonyl)-2-azaspiro[3.3]heptan-6-yl)-3-(3-(trifluoromethyl)phenyl)urea]	< 5	5 to 25
O=C(Nc1cccc(C(F)(F)F)c1)NC1CC2(C1)CN(C(=O)c1cnn3cc(CNC4COC4)ccc13)C2 [Example 116, 1-(2-(6-((oxetan-3-ylamino)methyl)pyrazolo[1,5-a]pyridine-3-carbonyl)-2-azaspiro[3.3]heptan-6-yl)-3-(3-(trifluoromethyl)phenyl)urea]	< 5	5 to 25

Other lines, results leading:

Ki [1] [nM]	Ki [2] [nM]	Compound
< 5	< 5	CN(C(=O)Nc1cccc(C(F)(F)C(F)(F)F)c1)C1CC2(C1)CN(C(=O)c1cnn3ccn(C)c13)C2 [Example 117, 1-methyl-1-(2-(1-methyl-1H-imidazo[1,2-b]pyrazole-7-carbonyl)-2-azaspiro[3.3]heptan-6-yl)-3-(3-(perfluoroethyl)phenyl) urea]
< 5	< 5	Cn1ccn2ncc(C(=O)N3CC4(CC(NC(=O)Nc5ccc(F)c(OC(F)(F)F)c5)C4)C3)c12 [Example 118, 1-(4-fluoro-3-(trifluoromethoxy)phenyl)-3-(2-(1-methyl-1H-imidazo[1,2-b]pyrazole-7-carbonyl)-2-azaspiro[3.3]heptan-6-yl)urea]
< 5	< 5	Cn1ccn2ncc(C(=O)N3CC4(CC(NC(=O)Nc5cc(C#N)cc(S(F)(F)(F)(F)F)c5)C4)C3)c12 [Example 119, 1-(3-cyano-5-(pentafluoro-16-sulfaneyl)phenyl)-3-(2-(1-methyl-1H-imidazo[1,2-b]pyrazole-7-carbonyl)-2-azaspiro[3.3]heptan-6-yl)urea]
< 5	< 5	O=C(Nc1cccc(S(F)(F)(F)(F)F)c1)NC1CC2(C1)CN(C(=O)c1ccnc3[nH]ncc13)C2 [Example 120, 1-(2-(1H-pyrazolo[3,4-b]pyridine-4-carbonyl)-2-azaspiro[3.3]heptan-6-yl)-3-(3-(pentafluoro-16-sulfaneyl)phenyl)urea]
< 5	5 to 25	Cn1ccn2ncc(C(=O)N3CC4(CC(NC(=O)Nc5ccc(F)c(C(F)(F)F)c5)C4)C3)c12 [Example 121, 1-(4-fluoro-3-(trifluoromethyl)phenyl)-3-(2-(1-methyl-1H-imidazo[1,2-b]pyrazole-7-carbonyl)-2-azaspiro[3.3]heptan-6-yl)urea]
< 5	< 5	O=C(Nc1cccc(C(F)(F)F)c1)NC1CC2(C1)CN(C(=O)c1ncnc3[nH]ncc13)C2 [Example 122, 1-(2-(1H-pyrazolo[3,4-d]pyrimidine-4-carbonyl)-2-azaspiro[3.3]heptan-6-yl)-3-(3-(trifluoromethyl)phenyl)urea]
< 5	5 to 25	Cn1ccn2ncc(C(=O)N3CC4(CC(NC(=O)Nc5cc(C(F)(F)F)ccc5F)C4)C3)c12 [Example 123, 1-(2-fluoro-5-(trifluoromethyl)phenyl)-3-(2-(1-methyl-1H-imidazo[1,2-b]pyrazole-7-carbonyl)-2-azaspiro[3.3]heptan-6-yl)urea]
< 5	< 5	Cn1ccn2ncc(C(=O)N3CC4(CC(NC(=O)Nc5cc(F)cc(OC(F)(F)F)c5)C4)C3)c12 [Example 124, 1-(3-fluoro-5-(trifluoromethoxy)phenyl)-3-(2-(1-methyl-1H-imidazo[1,2-b]pyrazole-7-carbonyl)-2-azaspiro[3.3]heptan-6-yl)urea]
< 5	< 5	Cn1ccn2ncc(C(=O)N3CC4(CC(NC(=O)Nc5cccc(SC(F)(F)F)c5)C4)C3)c12 [Example 125, 1-(2-(1-methyl-1H-imidazo[1,2-b]pyrazole-7-carbonyl)-2-azaspiro[3.3]heptan-6-yl)-3-(3-((trifluoromethyl)thio)phenyl) urea]
< 5	5 to 25	Cn1ccn2ncc(C(=O)N3CC4(CC(NC(=O)Nc5cc(C(F)(F)F)ccc5OC5COC5)C4)C3)c12 [Example 126, 1-(2-(1-methyl-1H-imidazo[1,2-b]pyrazole-7-carbonyl)-2-azaspiro[3.3]heptan-6-yl)-3-(2-(oxetan-3-yloxy)-5-(trifluoromethyl)phenyl)urea]
< 5	< 5	Cn1ccn2ncc(C(=O)N3CC4(CC(NC(=O)Nc5cccc(C(F)(F)C(F)(F)F)c5)C4)C3)c12 [Example 127, 1-(2-(1-methyl-1H-imidazo[1,2-b]pyrazole-7-carbonyl)-2-azaspiro[3.3]heptan-6-yl)-3-(3-(perfluoroethyl)phenyl)urea]
< 5	5 to 25	CN(C(=O)Nc1cccc(C(F)(F)F)c1)C1CC2(C1)CN(C(=O)c1ccnc3[nH]ncc13)C2 [Example 128, 1-(2-(1H-pyrazolo[3,4-b]pyridine-4-carbonyl)-2-azaspiro[3.3]heptan-6-yl)-1-methyl-3-(3-(trifluoromethyl)phenyl)urea]
